This is an account of results in patent publication US5886178A, “3-aroylbenzylpyridazinone derivatives” (Syntex (U.S.A.) Inc., priority 1997, dated 1999).

The target in test [1] is T1, COX II (Homo sapiens, UniProt P35354).
T1 sequence (P35354 18-604): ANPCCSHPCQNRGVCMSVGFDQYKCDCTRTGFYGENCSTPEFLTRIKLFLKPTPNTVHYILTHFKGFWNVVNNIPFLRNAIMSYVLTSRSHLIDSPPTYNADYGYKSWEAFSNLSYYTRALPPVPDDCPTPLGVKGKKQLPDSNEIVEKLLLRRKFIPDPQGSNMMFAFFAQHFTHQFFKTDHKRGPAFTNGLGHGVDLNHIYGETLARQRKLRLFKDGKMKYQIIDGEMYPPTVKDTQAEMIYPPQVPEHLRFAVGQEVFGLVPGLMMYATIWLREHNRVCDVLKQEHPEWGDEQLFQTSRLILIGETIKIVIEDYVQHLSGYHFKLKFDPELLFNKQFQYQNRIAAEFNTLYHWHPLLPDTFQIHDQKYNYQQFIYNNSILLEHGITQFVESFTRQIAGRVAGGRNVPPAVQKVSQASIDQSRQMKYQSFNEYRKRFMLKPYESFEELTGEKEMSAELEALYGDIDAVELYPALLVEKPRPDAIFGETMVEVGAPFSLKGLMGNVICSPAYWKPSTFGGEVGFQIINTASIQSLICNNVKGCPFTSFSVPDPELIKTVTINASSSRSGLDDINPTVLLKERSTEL
The test is described as follows: Inhibition of COX II in vitro, partially purified enzyme, radiometric assay. Format: biochemical. The conditions noted are these: 20 micromolar arachidonic acid. Details: made in house. As for the experimental part: (§1) The COX I and COX II inhibitory activity of compounds of this invention in vitro was determined using partially purified COX I and COX II enzymes, prepared as described in J. Barnett et al, Biochim. Biophys.
(§2) COX I and COX II samples were diluted with Tris-HCl buffer (50 mM Tris-HCl, pH 7.9) containing 2 mM EDTA and 10% glycerol and reconstituted by incubating first with 2 mM phenol for 5 minutes and then with 1 micromolar hematin for an additional 5 minutes. 125 μl of the reconstituted COX I or COX II enzyme were preincubated for 10 minutes at room temperature in a shaking water bath with the compounds of the invention dissolved in 2-15 μl of DMSO or the carrier vehicles (control samples). The enzyme reaction was initiated by adding 25 μl of 1-[14C]arachidonic acid (80,000-100,000 cpm/tube; 20 micromolar final concentration) and the reaction was allowed to continue for an additional 45 seconds. The reaction was terminated by adding 100 μl of 2N HCl and 750 μl water. An aliquot (950 μl) of the reaction mixture was loaded onto a 1 ml C18 Sep-Pak column (J. T. Baker, Phillipsburg, N.J.) which had been previously washed with 2-3 ml methanol and equilibrated with 5-6 ml distilled water. Oxygenated products were quantitatively eluted with 3 ml of acetonitrile/water/acetic acid (50:50:0.1, v/v) and the radioactivity in the eluate determined in a scintillation counter.

The target in test [2] is T2, COX I (Homo sapiens, UniProt P23219). The test is described as follows: Inhibition of COX I in vitro, partially purified enzyme, radiometric assay. It is filed as biochemical. Details: made in house. The settings on record: 20 micromolar arachidonic acid. Here is the method:
as §1, §2

Test [3] has as its target T1, COX II. The test is described as follows: Inhibition of COX II in a cell based assay (human foreskin fibroblasts, PGE2 ELISA). Details: host or cells: primary human foreskin fibroblasts (HFF), induced with PMA and human interleukin-1. The conditions noted are these: human foreskin fibroblasts (HFF). As for the experimental part: (§3) The COX I and COX II inhibitory activity of compounds of this invention in a cell based assay was determined as described below.
The inhibitory activity of test compounds against cell associated COX-2 was measured using primary cultures of human foreskin fibroblasts (HFF). HFF cultures were obtained from ATCC, grown in DMEM medium (Gibco) and used between 13-30 passages. Cells were plated in 96-well microtiter plates at a density of 6-8×10^4 cells/well in DMEM containing 10% fetal calf serum (Sigma) and cultured at 37° C. until they became confluent. The medium was removed and the cells were washed once with PBS. COX-2 activity was induced by incubating the cells with fresh DMEM containing 0.1 μM phorbol 12-myristate 13-acetate (PMA, Sigma) and 1ng/ml of human interleukin-1 (Sigma) at 37° C. After 16 h the medium was removed and the cells were washed twice with phosphate buffered saline (PBS, Gibco). 200 μl/well of fresh medium containing desired concentrations of the test compounds in DMSO, or the carrier vehicle (control wells) was added and the cells incubated at 37° C. for 30 minutes; after which 5 μM calcium ionophore A23187 (Sigma) was added and the incubation was continued for an additional 10 minutes. The reaction was terminated by transferring the plates to ice. The culture supernatants were transferred and appropriately diluted, and the amount of prostaglandin E2 (PGE2) present in each supernatant was quantitated using an ELISA kit (Cayman Chemicals).
(§4) The COX I and COX II inhibitory activities in the cell based assay (expressed as IC50) of some compounds of the invention were: […]
On the technique in general: In an ELISA, binding on a coated surface is turned into a signal by an enzyme label.

For test [4], the target named is T2, COX I. Put plainly: Inhibition of COX I in a cell based assay (human promonocytic THP cells, TXB2 ELISA). On the set-up: endogenous in cells; host or cells: human promonocytic THP cells, PMA-treated. As for the experimental part: as §3
The inhibitory activity of the test compounds against cell associated COX-1 was measured using human promonocytic THP cells. Cells were plated in 96-well microtiter plates at a density of 8×10^4 cells/well in RPMI-1640 medium (Gibco). COX-1 activity was initiated by incubating the cells with 0.1μM phorbol 12-myristate 13-acetate (PMA, Sigma) in dimethyl sulfoxide (DMSO, Aldrich) at 37° C. After 40-48 hours, the medium was removed, and the cells were washed twice with phosphate buffered saline (PBS, Gibco). 225 μl/well of fresh medium containing desired concentrations of the test compounds in DMSO, or the carrier vehicles (control wells), was added and the cells incubated at 37° C. for 30 minutes; after which 5 μM calcium ionophore A23187 (Sigma) was added and the incubation was continued for an additional 10 minutes. The reaction was terminated by transferring the plates to ice. The culture supernatants were transferred and appropriately diluted and the amount of thromboxane B2 (TXB2) present in each supernatant was quantitated using an ELISA kit (Cayman Chemicals).
as §4

A short description of test [5]: Carrageenan-induced paw edema in the rat (anti-inflammatory activity). It is filed as in vivo. The conditions noted are these: 3 h, 30 mg/Kg, oral, female rats, read-out: % inhibition of increase in hind paw weight. As for the experimental part:
The anti-inflammatory activity of compounds of this invention was determined by measuring the inhibition of carrageenan-induced paw edema in the rat, using a modification of the method described in Winter C. k et al (1962) "Carrageenan-Induced Edema in Hind Paw of the Rat as an Assay for Anti-inflammatory Drugs". Proc. Soc. Exp. Biol. Med. 111: 544-547. This assay has been used as a primary in vivo screen for anti-inflammatory activity of most NSAIDs, and is considered predictive of human efficacy. Briefly, test materials were administered orally to female rats in a volume of 1 ml prepared as solutions or suspensions in an aqueous vehicle containing 0.9% NaCl, 0.5% sodium carboxymethyl-cellulose, 0.4% polysorbate 80, 0.9% benzyl alcohol and 97.3% distilled water. Control rats received vehicle alone. After 1 hr 0.05 ml of a 0.5% solution of Carrageenan (Type IV Lambda, Sigma Chemical Co.) in 0.9% saline was injected into the subplantar region of the right hind paw. Three hours later the rats were euthanized in a carbon dioxide atmosphere; hind paws were removed by severing at the tatso-crural joint; and the left and right paws were weighed. The increase in weight of the right paw over the left paw was obtained for each animal and the mean increases were calculated for each group. The anti-inflammatory activity of the test materials is expressed as the percent inhibition of the increase in hind paw weight of the test group relative to the vehicle-dosed control group.
The anti-inflammatory activities (expressed as % inhibition) of some of the compounds of the invention were: […]
Background: Carrageenan injected into the paw causes an acute inflammation.

Test [6] has as its system prostaglandin E2 synthesis. Put plainly: Inhibition of eicosanoid (PGE2) synthesis in vivo, carrageenan air-pouch model in rats. The settings on record: oral, male rats. Details: species or system rat. Here is the method:
In this assay, an air-pouch is created in the rat and the PGE2 levels in the air-pouch exudate are measured by enzyme immunoassay. Briefly, male rats were anesthetized using a 60:40 CO2 :O2 mixture and subsequently injected subcutaneously with 20 ml of sterilized air, under aseptic conditions, in the proximal area of the dorsum. This injection of sterile air causes the creation of a subcutaneous "air pouch". The next day, a further 10 ml of sterile air was injected into the previously formed pouch using the same technique. […] Control rats received vehicle alone. After 30 minutes, 5 ml of a 0.5% solution of carrageenan (Sigma, Lambda Type IV) was injected into the air pouch. The rats were euthanized 3 hr after the compound administration. […] The total exudate volume was recorded, and the samples were analyzed for PGE2 and 6-keto PGF1 by ELISA (Titerzyme®, PerSeptive Diagnostics) and TxB2 by radioimmuno assay (New England Nuclear Research, Catalog No. NEK-037), according to the manufacturer's directions.
The mean concentrations of PGE2 were calculated for each group. The anti-inflammatory activity of test materials is expressed as the percent inhibition of PGE2 formation in the test group relative to the control group.

T2 sequence (P23219 24-599): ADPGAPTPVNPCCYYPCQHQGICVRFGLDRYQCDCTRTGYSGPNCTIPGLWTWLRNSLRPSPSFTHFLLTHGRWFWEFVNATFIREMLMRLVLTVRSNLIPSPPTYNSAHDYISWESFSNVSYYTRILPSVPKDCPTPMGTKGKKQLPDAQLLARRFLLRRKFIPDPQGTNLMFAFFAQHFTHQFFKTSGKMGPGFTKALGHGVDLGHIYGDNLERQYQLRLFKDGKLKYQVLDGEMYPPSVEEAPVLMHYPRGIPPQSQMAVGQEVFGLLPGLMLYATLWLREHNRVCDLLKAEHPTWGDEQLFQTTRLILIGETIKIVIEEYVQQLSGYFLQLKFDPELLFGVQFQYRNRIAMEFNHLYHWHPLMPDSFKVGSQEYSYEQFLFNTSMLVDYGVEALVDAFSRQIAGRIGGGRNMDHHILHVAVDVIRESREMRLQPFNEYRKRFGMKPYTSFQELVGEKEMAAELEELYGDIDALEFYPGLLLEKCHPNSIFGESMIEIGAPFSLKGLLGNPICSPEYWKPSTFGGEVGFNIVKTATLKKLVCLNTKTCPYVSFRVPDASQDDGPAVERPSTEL

Turning to `O=C(c1ccc(Cl)c(Cc2ccc(=O)[nH]n2)c1)c1c(Cl)cc(Cl)cc1Cl` [Cpd 73, 6-[3-(2,4,6-trichlorobenzoyl)-6-chlorobenzyl]-2H-pyridazin-3-one], the IC50 against COX II [1] worked out at 0.16 µM; against COX I [2], 423 µM; at COX II [3], 0.2 µM; against COX I [4], 21 µM. For the same compound, the inhibition in vivo at 30 mg/kg in test [5] was 33%.
`COc1ccc(C(=O)c2c(Cl)cc(Cl)cc2Cl)cc1Cc1ccc(=O)n(C)n1` [Cpd 31, 6-[3-(2,4,6-trichlorobenzoyl)-6-methoxybenzyl]-2-methyl-2H-pyridazin-3-one]: the IC50 against COX II [1] was 1.3 µM; against COX I [2], 1000 µM; against COX II [3] it was 4 µM. Moreover, the inhibition in vivo at 30 mg/kg in test [5] was determined as 38%.
Regarding `O=C(c1cccc(Cc2ccc(=O)[nH]n2)c1)c1c(Cl)cc(Cl)cc1Cl` [Cpd 78, 6-[3-(2,4,6-trichlorobenzoyl)benzyl]-2H-pyridazin-3-one], the values for the IC50 at COX II [1], on COX I [2] and against COX II [3] were 2 µM, 740 µM and 0.3 µM, respectively. Moreover, the inhibition in vivo at 30 mg/kg in test [5] came out at 22%.
Take `COc1ccc(C(=O)c2c(Cl)cc(C)cc2Cl)cc1Cc1ccc(=O)[nH]n1` [Cpd 28, 6-[3-(2,6-dichloro-4-methylbenzoyl)-6-methoxybenzyl]-2H-pyridazin-3-one]: the results for the IC50 at COX II [1], against COX I [2] and at COX II [3] were 2 µM, 100 µM and 3.4 µM, respectively. In addition, in test [5], the inhibition in vivo at 30 mg/kg amounted to 21%.
`Cc1ccc(C(=O)c2c(Cl)cc(Cl)cc2Cl)cc1Cc1ccc(=O)n(C)n1` [Cpd 62, 6-[3-(2,4,6-trichlorobenzoyl)-6-methylbenzyl]-2-methyl-2H-pyridazin-3-one]: the IC50 against COX II [1] was determined as 0.18 µM; at COX I [2], 300 µM; against COX II [3], 0.3 µM. The inhibition in vivo at 30 mg/kg in test [5] stood at 33%.
As for `COc1ccc(C(=O)c2c(Br)cc(C)cc2Br)cc1Cc1ccc(=O)[nH]n1` [Cpd 39, 6-[3-(2,6-dibromo-4-methylbenzoyl)-6-methoxybenzyl]-2H-pyridazin-3-one], the IC50 on COX II [1] was determined as 1 µM; on COX I [2], 100 µM; against COX II [3] it was 1 µM; on COX I [4] it was 26 µM. The inhibition in vivo at 30 mg/kg in test [5] came out at 33%.
With `COc1ccc(C(=O)c2c(C)cc(C)cc2C)cc1Cc1ccc(=O)[nH]n1` [Cpd 44, 6-[3-(2,4,6-trimethylbenzoyl)-6-methoxybenzyl]-2H-pyridazin-3-one], the IC50 worked out at 1.3 µM on COX II [1], 100 µM against COX I [2], 1.2 µM at COX II [3] and 16 µM against COX I [4]. Further, in test [5], the inhibition in vivo at 30 mg/kg was found to be 19%.
Turning to `Cc1ccc(C(=O)c2c(Cl)cc(Cl)cc2Cl)cc1Cc1ccc(=O)[nH]n1` [Cpd 61, 6-[3-(2,4,6-trichlorobenzoyl)-6-methylbenzyl]-2H-pyridazin-3-one], the IC50 at COX II [1] was found to be 0.18 µM; against COX I [2] it was 310 µM; against COX II [3] it was 0.48 µM.
With `CSc1ccc(C(=O)c2cccc(Cc3ccc(=O)[nH]n3)c2Cl)cc1` [Cpd 5, 6-[3-(4-methylthio-benzoyl)-2-chlorobenzyl]-2H-pyridazin-3-one], in test [6] (10 mg/Kg), the “% inhibition of air pouch PGE2 formation” value was found to be 32%.
As to `O=C(c1ccc(F)c(Cc2ccc(=O)[nH]n2)c1)c1c(Cl)cc(Cl)cc1Cl` [Cpd 77, 6-[3-(2,4,6-trichlorobenzoyl)-6-fluorobenzyl]-2H-pyridazin-3-one], the “% inhibition of air pouch PGE2 formation” value in test [6] (30 mg/Kg) is 53%. Further, the 50% inhibitory concentration (IC50) was found to be 0.14 µM against COX II [1], 300 µM at COX I [2], 0.03 µM at COX II [3] and 17 µM against COX I [4].
As to `COc1ccc(C(=O)c2c(Cl)cc(Cl)cc2Cl)cc1Cc1ccc(=O)[nH]n1` [Cpd 26, 6-[3-(2,4,6-trichlorobenzoyl)-6-methoxybenzyl]-2H-pyridazin-3-one], the concentration for half-maximal inhibition (IC50) against COX II [1] was 0.6 µM; on COX I [2], 540 µM; on COX II [3] it was 0.3 µM; against COX I [4], 19 µM. The inhibition in vivo at 30 mg/kg in test [5] came to 24%.
Turning to `CSc1ccc(C(=O)c2cccc(Cc3ccc(=O)[nH]n3)c2C)cc1` [Cpd 10, 6-[3-(4-methylthiobenzoyl)-2-methylbenzyl]-2H-pyridazin-3-one], the “% inhibition of air pouch PGE2 formation” value in test [6] (10 mg/Kg) turned out to be 24%.

The IC50 is the concentration at which inhibition is half-maximal. The low end stands for higher potency, the high end for lower potency.
